Results on one compound are retold here after patent publication US12606552B2, “Bifunctional compound, preparation method therefor, and use thereof” (SUZHOU KINTOR PHARMACEUTICALS, INC., priority 2020, dated 2026).

SMILES strings stand for the structures.

The experiment concerns the target T1, AR (Homo sapiens, UniProt P10275, T878A).
T1 sequence (P10275 1-920 T878A): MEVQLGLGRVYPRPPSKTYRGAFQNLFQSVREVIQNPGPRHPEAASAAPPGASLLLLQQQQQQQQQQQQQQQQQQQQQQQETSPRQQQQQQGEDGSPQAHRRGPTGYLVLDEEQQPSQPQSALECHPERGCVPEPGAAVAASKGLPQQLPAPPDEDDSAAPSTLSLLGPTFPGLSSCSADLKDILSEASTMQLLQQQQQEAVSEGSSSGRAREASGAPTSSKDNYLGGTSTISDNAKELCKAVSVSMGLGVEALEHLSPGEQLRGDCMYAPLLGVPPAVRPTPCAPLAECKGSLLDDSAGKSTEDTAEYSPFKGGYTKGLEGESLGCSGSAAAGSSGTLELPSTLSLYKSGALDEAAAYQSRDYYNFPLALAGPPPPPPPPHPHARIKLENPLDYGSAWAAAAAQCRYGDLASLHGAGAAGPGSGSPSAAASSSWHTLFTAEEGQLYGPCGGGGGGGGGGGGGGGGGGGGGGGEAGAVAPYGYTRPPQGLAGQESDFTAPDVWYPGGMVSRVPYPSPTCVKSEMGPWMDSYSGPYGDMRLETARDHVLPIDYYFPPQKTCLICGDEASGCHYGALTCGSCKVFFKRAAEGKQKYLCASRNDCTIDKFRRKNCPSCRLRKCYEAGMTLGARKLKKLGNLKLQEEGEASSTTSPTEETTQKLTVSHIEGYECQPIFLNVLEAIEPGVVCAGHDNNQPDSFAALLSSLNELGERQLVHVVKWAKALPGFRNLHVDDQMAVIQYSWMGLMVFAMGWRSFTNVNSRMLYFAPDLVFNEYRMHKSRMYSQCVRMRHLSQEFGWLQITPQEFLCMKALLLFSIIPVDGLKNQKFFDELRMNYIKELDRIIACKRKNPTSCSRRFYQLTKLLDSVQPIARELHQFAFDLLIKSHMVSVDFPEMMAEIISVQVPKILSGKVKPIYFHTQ
The experiment can be described thus: Degradation effect on AR protein activity in prostate cancer cell line Lncap by ELISA method. Details: Degradation Effect of Compounds on AR Protein Activity in Prostate Cancer Cell Line Lncap by ELISA Method; endogenous in cells; host or cells: LNCaP. To be noted: 24 hours, Total Androgen Receptor Sandwich ELISA, read-out: IC50 (the drug concentration at 50% inhibition) of AR protein. The format is cell-based. On the procedure:
Activity Assay Example 6: Determination of the Degradation Effect of Compounds on AR Protein Activity in Prostate Cancer Cell Line Lncap by ELISA Method
• LNCaP: 1.5*10^LNCaP (human prostate cancer) was purchased from the Chinese Academy of Sciences Cell Bank and cultured in RPMI-1640 medium containing 10% fetal bovine serum. Lncap cells were cultured at 37° C. and 5% CO2 in a humidified incubator. When the coverage reached about 80%, the cells were passaged at a ratio of 1:3. • ELISA kit: Total Androgen Receptor Sandwich ELISA Kit (Brand CST, Cat #12850). 2. Test Method 2.1 Cell Plating
After the cells were centrifuged, they were diluted to 1.5×10^4 cells/100 ul with fresh medium and plated into a 96-well plate with 100 ul per well.
Test compound preparation: The compounds were weighed and diluted with DMSO to stock solution with a concentration of 10 mM for later use. According to the experimental requirements, the drug was diluted from 2 uM, 3 fold dilution for 10 point series, and finally 2 μl of the drug was added to each well, and 2 μl of DMSO was added to the control group.
2.3 After 24 hours, the medium was removed, and the cells were washed once with ice-cold 1×PBS. Then the PBS was removed, and 0.5 ml ice-cold 1× Cell Lysis Buffer containing 1 mM PMSF was added to each well plate and incubated on ice for 20 minutes. […]
In general terms: An ELISA detects its analyte on a solid surface through an enzyme-linked reagent.

Take `Cc1ncsc1-c1ccc(CNC(=O)[C@@H]2C[C@@H](O)CN2C(=O)[C@@H](NC(=O)COCCCCOc2ccc(-c3ccc(N4C(=S)N(c5ccc(C#N)c(C(F)(F)F)c5F)C(=O)C4(C)C)cn3)cc2)C(C)(C)C)cc1` [Compound A46]: the DC50 was determined as 49 nM.
